{"source": "ChEMBL document CHEMBL1201862", "about": "“PubChem BioAssay data set” (2004)", "assay_in_all_cases": "NCI tumour cell line growth inhibition, 48 h", "key": {"SF-539": {"system": "SF-539"}, "RXF 393": {"system": "RXF 393"}, "NCI-H460": {"system": "NCI-H460"}, "CCRF-CEM": {"system": "CCRF-CEM"}, "Malme-3M": {"system": "Malme-3M"}, "T47D": {"system": "T47D"}, "SK-MEL-28": {"system": "SK-MEL-28"}, "SK-OV-3": {"system": "SK-OV-3"}, "SK-MEL-2": {"system": "SK-MEL-2"}, "PC-3": {"system": "PC-3"}, "UACC-62": {"system": "UACC-62"}, "CAKI-1": {"system": "CAKI-1"}, "TK-10": {"system": "TK-10"}, "DU-145": {"system": "DU-145"}, "OVCAR-5": {"system": "OVCAR-5"}, "HOP-92": {"system": "HOP-92"}, "COLO 205": {"system": "COLO 205"}, "NCI-H226": {"system": "NCI-H226"}, "SW-620": {"system": "SW-620"}, "HOP-62": {"system": "HOP-62"}, "NCI-H522": {"system": "NCI-H522"}, "SF-295": {"system": "SF-295"}, "HCT-15": {"system": "HCT-15"}, "SK-MEL-5": {"system": "SK-MEL-5"}, "MDA-MB-231": {"system": "MDA-MB-231"}, "MCF7": {"system": "MCF7"}, "SNB-75": {"system": "SNB-75"}, "LOX IMVI": {"system": "LOX IMVI"}, "ACHN": {"system": "ACHN"}, "MDA-N": {"system": "MDA-N"}, "SR": {"system": "SR"}, "IGROV-1": {"system": "IGROV-1"}, "UACC-257": {"system": "UACC-257"}, "786-0": {"system": "786-0"}, "A549": {"system": "A549"}, "M14": {"system": "M14"}, "U-251": {"system": "U-251"}, "HL-60": {"system": "HL-60"}, "OVCAR-3": {"system": "OVCAR-3"}, "OVCAR-4": {"system": "OVCAR-4"}, "SN12C": {"system": "SN12C"}, "HT-29": {"system": "HT-29"}, "OVCAR-8": {"system": "OVCAR-8"}, "NCI-H23": {"system": "NCI-H23"}, "KM12": {"system": "KM12"}, "NCI/ADR-RES": {"system": "NCI/ADR-RES"}, "SF-268": {"system": "SF-268"}, "EKVX": {"system": "EKVX"}, "HCT-116": {"system": "HCT-116"}, "K562": {"system": "K562"}, "MOLT-4": {"system": "MOLT-4"}, "MDA-MB-435": {"system": "MDA-MB-435"}, "SNB-19": {"system": "SNB-19"}, "HCC 2998": {"system": "HCC 2998"}, "A498": {"system": "A498"}, "Hs-578T": {"system": "Hs-578T"}}, "note": "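Following 48 hours of exposure in 96-well plates, responses at five concentrations were used to interpolate endpoints linearly. The concentration for 50% growth inhibition is given as GI50.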 The source made the active and inactive calls. Cut-off read from the data, not from the text of the source: active = GI50 up to about 1.1 µM and inactive = higher."}
{"smiles": "COc1ccc(/C=C2\\C=Cc3ccccc32)cc1OC", "values": [{"measurement": "GI50", "setting": "SF-539", "result": "> 100 µM (inactive)"}, {"measurement": "GI50", "setting": "RXF 393", "result": "50.4 µM (inactive)"}, {"measurement": "GI50", "setting": "NCI-H460", "result": "> 100 µM (inactive)"}, {"measurement": "GI50", "setting": "CCRF-CEM", "result": "57.1 µM (inactive)"}, {"measurement": "GI50", "setting": "Malme-3M", "result": "> 100 µM (inactive)"}, {"measurement": "GI50", "setting": "T47D", "result": "47.3 µM (inactive)"}, {"measurement": "GI50", "setting": "SK-MEL-28", "result": "> 100 µM (inactive)"}, {"measurement": "GI50", "setting": "SK-OV-3", "result": "76.2 µM (inactive)"}, {"measurement": "GI50", "setting": "SK-MEL-2", "result": "72.1 µM (inactive)"}, {"measurement": "GI50", "setting": "PC-3", "result": "46.5 µM (inactive)"}, {"measurement": "GI50", "setting": "UACC-62", "result": "23.1 µM (inactive)"}, {"measurement": "GI50", "setting": "CAKI-1", "result": "> 100 µM (inactive)"}, {"measurement": "GI50", "setting": "TK-10", "result": "> 100 µM (inactive)"}, {"measurement": "GI50", "setting": "DU-145", "result": "> 100 µM (inactive)"}, {"measurement": "GI50", "setting": "OVCAR-5", "result": "> 100 µM (inactive)"}, {"measurement": "GI50", "setting": "HOP-92", "result": "6.49 µM (inactive)"}, {"measurement": "GI50", "setting": "COLO 205", "result": "> 100 µM (inactive)"}, {"measurement": "GI50", "setting": "NCI-H226", "result": "28.4 µM (inactive)"}, {"measurement": "GI50", "setting": "SW-620", "result": "> 100 µM (inactive)"}, {"measurement": "GI50", "setting": "HOP-62", "result": "> 100 µM (inactive)"}, {"measurement": "GI50", "setting": "NCI-H522", "result": "30.4 µM (inactive)"}, {"measurement": "GI50", "setting": "SF-295", "result": "> 100 µM (inactive)"}, {"measurement": "GI50", "setting": "HCT-15", "result": "> 100", "unit": "µM"}, {"measurement": "GI50", "setting": "SK-MEL-5", "result": "43.2 µM (inactive)"}, {"measurement": "GI50", "setting": "MDA-MB-231", "result": "78.3 µM (inactive)"}, {"measurement": "GI50", "setting": "MCF7", "result": "> 100 µM (inactive)"}, {"measurement": "GI50", "setting": "SNB-75", "result": "20.6 µM (inactive)"}, {"measurement": "GI50", "setting": "LOX IMVI", "result": "> 100 µM (inactive)"}, {"measurement": "GI50", "setting": "ACHN", "result": "78.2 µM (inactive)"}, {"measurement": "GI50", "setting": "MDA-N", "result": "> 100 µM (inactive)"}, {"measurement": "GI50", "setting": "SR", "result": "50.9 µM (inactive)"}, {"measurement": "GI50", "setting": "IGROV-1", "result": "73.8 µM (inactive)"}, {"measurement": "GI50", "setting": "UACC-257", "result": "> 100 µM (inactive)"}, {"measurement": "GI50", "setting": "786-0", "result": "57.5 µM (inactive)"}, {"measurement": "GI50", "setting": "A549", "result": "> 100 µM (inactive)"}, {"measurement": "GI50", "setting": "M14", "result": "> 100 µM (inactive)"}, {"measurement": "GI50", "setting": "U-251", "result": "76 µM (inactive)"}, {"measurement": "GI50", "setting": "HL-60", "result": "10.9 µM (inactive)"}, {"measurement": "GI50", "setting": "OVCAR-3", "result": "> 100 µM (inactive)"}, {"measurement": "GI50", "setting": "OVCAR-4", "result": "29.9 µM (inactive)"}, {"measurement": "GI50", "setting": "SN12C", "result": "60 µM (inactive)"}, {"measurement": "GI50", "setting": "HT-29", "result": "88.3 µM (inactive)"}, {"measurement": "GI50", "setting": "OVCAR-8", "result": "> 100 µM (inactive)"}, {"measurement": "GI50", "setting": "NCI-H23", "result": "24 µM (inactive)"}, {"measurement": "GI50", "setting": "KM12", "result": "> 100 µM (inactive)"}, {"measurement": "GI50", "setting": "NCI/ADR-RES", "result": "> 100 µM (inactive)"}, {"measurement": "GI50", "setting": "SF-268", "result": "> 100 µM (inactive)"}, {"measurement": "GI50", "setting": "EKVX", "result": "22.5 µM (inactive)"}, {"measurement": "GI50", "setting": "HCT-116", "result": "91.2 µM (inactive)"}, {"measurement": "GI50", "setting": "K562", "result": "29.8 µM (inactive)"}, {"measurement": "GI50", "setting": "MOLT-4", "result": "38.6 µM (inactive)"}, {"measurement": "GI50", "setting": "MDA-MB-435", "result": "> 100 µM (inactive)"}, {"measurement": "GI50", "setting": "SNB-19", "result": "> 100 µM (inactive)"}, {"measurement": "GI50", "setting": "HCC 2998", "result": "> 100 µM (inactive)"}, {"measurement": "GI50", "setting": "A498", "result": "39.4 µM (inactive)"}, {"measurement": "GI50", "setting": "Hs-578T", "result": "29.9 µM (inactive)"}]}
